From US11207301B2, “Sphingosine 1 phosphate receptor agonists for neuroprotection” (RECEPTOS LLC, priority 2017, dated 2021)

Key:
Format in all cases: cell-based
[1] = system: AKT phosphorylation in primary mouse astrocytes; assay: AKT phosphorylation in primary mouse cortical astrocytes (AlphaLISA SureFire Ultra); conditions: Astrocyte, 10 min, 10-minute exposure, mean of n=3
Protocol: (§1) For the experiments using mouse and human primary astrocytes, ten-point concentration-response curves (90 nM-4.57 pM or 30 nM-1.52 pM) were generated for AKT and/or ERK phosphorylation in primary human and mouse cortical astrocytic cultures in response to a 10-minute treatment with ozanimod, Compound 3, Compound 1, or FTY720-P. AKT and ERK phosphorylation were quantified using AlphaLISA SureFire Ultra Assay kits and the EnVision Plate Reader. AKT and ERK phosphorylation within treated astrocytes were expressed as the mean change in signal intensity compared to the dimethyl sulfoxide (DMSO) vehicle and the half maximal effective concentration (EC50) was determined using non-linear regression.
Timed pregnant (E16) C57BL/6J female mice arrive to the test facility on a weekly basis and were housed and cared for according to appropriate protocols for this model. Primary mouse cortical astrocytes are harvested from P0-P2 pups. The newly born animals were deeply anesthetized on ice, decapitated, and the brains were rapidly removed and stored in ice-cold NbAstro media (BrainBits, LLC). Cells were dissociated from freshly dissected cortices by mechanical disruption in the presence of trypsin and DNase. Cells were put into a PDL coated T75 tissue culture flask containing 16 mL NbAstro Media and incubated at 37° C. 5% CO2. Once the mouse astrocytes had reached confluency in the T75 flask, they were detached using TripLE detachment reagent, pelleted at 300×g, expanded into two T225 PDL coated tissue culture flasks containing 40 mL of NbAstro and incubated at 37° C. 5% CO2. Once the astrocytes reached confluency in the T225 flasks they were detached using TrypLE detachment reagent, pelleted at 300×g, plated into PDL coated 96-well plates at a density of 10,000 cells per well in 200 μL NbAstro and incubated at 37° C. 5% CO2. Half of the media was replenished every 3-4 days. After 5-7 days of incubation, the P2 mouse astrocyte plates were utilized for the pERK and pAKT assays.
Cell lysis and detection of pAKT were performed according to the PerkinElmer AlphaLISA SureFire Ultra pAKT1/2/3 ([…]) assay protocol. Astrocytes were lysed in the 96-well plate following a 10 minute incubation with compounds with shaking at room temperature (RT). The astrocytic lysates (10 μL/well) were transferred into a 384-well OptiPlate. As specified by the assay protocol, an acceptor bead mix and a donor bead mix (5 μL/well for each) were added to the plate under subdued light. […] The plates were read on the EnVision Plate Reader to assess the pAKT levels.
(§2) The AKT and ERK phosphorylation data, collected by a Perkin Elmer EnVision Microplate Reader, was analyzed by non-linear regression (GraphPad Prism, version 7.03) to determine the EC50 values.

[2] = system: ERK phosphorylation in primary rat astrocytes; assay: ERK phosphorylation in primary rat astrocytes (MSD pERK assay); conditions: Astrocyte, 10 min, 10-minute exposure, mean of n=3
Protocol: (§3) For the experiments using rat primary astrocytes, eight-point concentration-response curves were generated for AKT and ERK phosphorylation in primary rat astrocytes cultures in response to a 10-minute treatment with ozanimod (100 nM-46 pM), Compound 3 (10 nM-5 pM), Compound 1 (10 nM-5 pM), or FTY720-P (10 nM-5 pM). Phosphorylation of AKT and ERK was quantified using Meso Scale Discovery assay kits (MSD Mutli-Spot Phopho-AKT (Ser473) Assay Kit and MSD Multi-Spot MAP Kinase Phosphoprotein Assay Whole Cell Lysate Kit) and imaging platform. AKT and ERK phosphorylation within treated astrocytes were assessed as the mean change in signal intensity compared to DMSO vehicle and the half maximal effective concentration (EC50) was determined using non-linear regression.
(§4) Embryonic day18 (E18) rat cortices were purchased from BrainBits LLC. (Springfield, Ill.) and were cultured according to the supplier's protocol. Briefly, cortices were incubated at 37° C. for 10 minutes in activated papain solution before trituration in hibernation medium containing B27 supplement using a modified siliconized glass Pasteur pipette. The cell suspension was centrifuged at 1100×g for 1 minute at room temperature (RT). The cell pellet was then resuspended in NbAstro medium (BrainBits LLC.) and the live cell density was assessed using a cell counter. Primary cells were plated at a density of 7500 cells/cm2 in T75 tissue culture flasks coated with poly-D-lysine (PDL) in a total volume of 12 mL of NbAstro media, and incubated for 10-14 days at 37° C. 5% CO2. After 10-14 days, primary astrocytes in passage 0 (P0) that had reached confluency in the T75 flasks were detached using TrypLE detachment reagent, pelleted at 300×g, and plated into poly-d-lysine coated T225 flasks in 20 mL of NbAstro media, and incubated for another 7 days at 37° C. 5% CO2. After 7 days, primary P1 astrocytes in confluent T225 flasks were detached using TrypLE detachment reagent, pelleted at 300×g, and plated intopoly-d-lysine coated 96-well plates at 10,000 cells per well in 200 μL of NbAstro media, and incubated for 7 days at 37° C. 5% CO2. After 7 days, P2 primary astrocytes were utilized for pAKT and pERK assays.
(§5) The pERK (phosphorylated ERK)/pMAPkinase assay was performed according to the manufacturer's protocol. Briefly, MSD pERK/pMAPkinase plates were blocked for 1-2 hours by adding 150 μL of blocker A prepared in 1× Tris wash buffer. […] Following antibody incubation, plates were washed three times with 150 μL of 1× Tris wash buffer and 1× read buffer (150 μL/well) was added. Finally, the plates were read in the MSD imager platform to assess the pERK levels.
(§6) AKT and ERK phosphorylation data were analyzed by non-linear regression (GraphPad Prism, version 6) to determine the EC50 values.

[3] = system: AKT phosphorylation in primary rat astrocytes; assay: AKT phosphorylation in primary rat astrocytes (MSD pAKT assay); conditions: Astrocyte, 10 min, 10-minute exposure, mean of n=4
Protocol: as §3, §4
as §5, with “pAKT” for “pERK”, “AKT)” for “ERK)/pMAPkinase”, “pAKT” for “pERK/pMAPkinase”, “Finally,” for “Finally, the”, “pAKT” for “the pERK”
as §6

[4] = system: ERK phosphorylation in primary human astrocytes; assay: ERK phosphorylation in primary human cortical astrocytes (AlphaLISA SureFire Ultra); conditions: Astrocyte, 10 min, 10-minute exposure, n=3-5
Protocol: as §1
Primary human astrocytes were purchased from ScienCell Research Laboratories, Inc. and cultured according to the supplier's protocol. The astrocytes were obtained from the human cerebral cortex, cryopreserved at passage one, and delivered frozen. The frozen vials of cells were gently thawed in a 37° C. water bath. Once the contents of the vial were completely thawed, the cell solution was dispensed into a poly-L-lysine (PLL) coated T75 tissue culture flask with 16 mL of human Astrocyte Media, (ScienCell Research Laboratories, Inc.) and incubated at 37° C. 5% CO2. Once the human astrocytes had reached confluency in the T75 flask, they were detached using trypsin/EDTA 0.25%, pelleted at 300×g, split into two PLL coated T225 tissue culture flasks in 40 mL of astrocyte media, and incubated at 37° C. 5% CO2. Once the astrocytes reached confluency in the T225 flasks, they were detached using trypsin/EDTA 0.25% solution, pelleted at 300×g, plated into poly-D-lysine (PDL) coated 96-well plates at a density of 10,000 cells per well in 200 μL human Astrocyte Media, and incubated at 37° C. 5% CO2. Half of the media was replenished every 3-4 days. After 5-7 days of incubation, the P2 human astrocyte plates were utilized for the pERK and pAKT assays.
Cell lysis and detection of pERK were performed according to the PerkinElmer AlphaLISA SureFire Ultra p-ERK1/2 (Thr202/TYR 204) assay protocol. Astrocytes were lysed in the 96-well plate following a 10 minute incubation with compounds with shaking at RT. The astrocytic lysates (10 μL/well) were transferred into a 384-well OptiPlate. As specified by the assay protocol, an acceptor bead mix and a donor bead mix (5 μL/well for each) were added to the plate under subdued light. Plates were sealed with adhesive plate seals and incubated in the dark for 2 hours at RT. The plates were read on the EnVision Plate Reader to assess the pERK levels.
as §2

How did the EC50 [1] turn out when `CC(C)Oc1ccc(-c2nc(-c3cccc4c3CCC4NCC(=O)O)no2)cc1C#N` (stereo not shown) [Compound 3] was run?
The EC50 was 130 pM.

And the EC50 [2]?
Its EC50 is 110 pM.

And the EC50 [3]?
The EC50 was 230 pM.

What about the EC50 [4] of the same compound?
The EC50 was 500 pM.
